# Patent US8283481B2, “Inhibitors of a 9-cis epoxycarotenoid dioxygenase” (National Research Council of Canada, priority 2008, dated 2012)
# pKi: −log10 of the molar value.
# Experiments:
# recombinant AtNCED3 = biological target: T1, recombinant AtNCED3 (Arabidopsis thaliana, UniProt Q9LRR7); experiment: Recombinant AtNCED3 in vitro enzyme assay (HPLC, cleavage of 9-cis-neoxanthin); format: biochemical; settings: for pKi: Dixon plot, competitive inhibition, 0-250 μM inhibitor, 9-cis-neoxanthin at 50 (55), 30 and 10 μM; for relative inhibition of AtNCED3 activity (in words): in vitro enzyme assay, 1 mM concentration (FIG. 5)
# T1 construct: glutathione-S-transferase (GST) (C); made in house; host or cells: E. coli BL21(DE3), pRL296 vector
# T1 sequence (Q9LRR7 41-599): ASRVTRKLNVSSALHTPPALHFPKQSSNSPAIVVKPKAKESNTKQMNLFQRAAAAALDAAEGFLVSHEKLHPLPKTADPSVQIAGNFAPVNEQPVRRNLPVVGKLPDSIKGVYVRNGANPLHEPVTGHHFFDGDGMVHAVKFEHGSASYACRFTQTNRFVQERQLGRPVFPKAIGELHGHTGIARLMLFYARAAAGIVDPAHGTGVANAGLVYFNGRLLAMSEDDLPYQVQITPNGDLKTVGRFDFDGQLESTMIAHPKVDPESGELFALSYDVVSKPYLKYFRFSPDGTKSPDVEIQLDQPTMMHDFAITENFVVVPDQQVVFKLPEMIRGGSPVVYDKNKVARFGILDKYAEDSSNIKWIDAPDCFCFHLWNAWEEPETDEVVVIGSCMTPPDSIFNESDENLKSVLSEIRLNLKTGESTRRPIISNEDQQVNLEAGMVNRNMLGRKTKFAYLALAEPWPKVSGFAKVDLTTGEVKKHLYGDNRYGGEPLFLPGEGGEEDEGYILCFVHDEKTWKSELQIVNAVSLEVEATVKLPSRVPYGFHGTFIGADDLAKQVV
# Source text: Fresh spinach was macerated under liquid nitrogen and extracted five times with three volumes of methanol/0.1% KOH. Samples were dried using a roto-evaporator, resuspended in acetone and then chilled on ice for one hour. The solvent was subsequently transferred to a new flask, roto-evaporated and resuspended in acetonitrile/acetone (1:1) mixture. The mixture was applied to a gravity flow column containing C-18 silica gel (Sigma) equilibrated in 65% acetonitrile/35% water (solvent C). The column was washed with 49% acetone (solvent D)/51% solvent A and 20 mL of 55% solvent D/45% solvent A while collecting 5 mL fractions. Fractions containing neoxanthin were pooled, dried, and resuspended in 100 μL of methanol. The pooled mixture was separated using an Agilent 1100 series HPLC and a Supelcosil™ LC-18 (25 cm×10 mm, 5 m) (Supelco) column equilibrated with solvent A. The HPLC method consisted of a linear gradient over 30 minutes from 100% solvent A to 100% solvent D with a flow rate of 4 mL/minute at 22° C. and monitored with a PDA detector at 436 nm. The neoxanthin fractions were collected, dried and resuspended in ethanol. Neoxanthin was quantified by determining its OD439 using a PerkinElmer Lambda 35 UV/VIS Spectrometer and applying its extinction coefficient of 2243 (A^1%1cm).^30
# AtNCED3 was over-expressed using the pRL296 expression vector (a gift from M. Cygler, BRI, Montreal) in E. coli (BL21)DE3 cells as a glutathione-S-transferase fusion protein and affinity purified using glutathione sepharose 4 fast flow resin (GE Healthcare) as described previously.^35 Essentially, cells were grown to an OD600 of 0.45 at 37° C. and 200 rpm shaking. The culture was induced with 1 mM isopropyl-β-d-thiogalactoside for 16 h at 15° C. and 200 rpm shaking. The cells were pelleted and resuspended in 50 mM Tris-HCl (pH 8.0) 1 mM DTT and 0.5% protease inhibitor cocktail set III (CalBiochem). Cells were lysed using a french press at 20,000 psi and affinity purified as per manufacturer's instructions (GE Healthcare). Protein concentration was determined by the method of Bradford.^36
# Enzymatic assays contained 100 mM Bis-Tris (pH 6.7), […], 10 mM ascorbate, 0.05% Triton™ X-100, catalase (1 mg/mL), neoxanthin and inhibitor to a total volume of 5 L of ethanol and 8 g AtNCED3 to a total assay volume of 100 L. Assays were incubated at 22° C. for 20 min. The assays were stopped with the addition of 50 L of 25% Triton™ X-100 and extracted with 150 L of ethyl acetate. All procedures were performed under red-light to minimize photo-induced damage to assay components and products.^6 Fine chemicals and solvents were purchased from Sigma-Aldrich. 75 μL of the assay extract was injected into an Agilent 1100 series HPLC machine equipped with a Supelcosil™ LC-18 (3.3 cm×4.6 mm, 3 m) (Supelco) column pre-equilibrated with 15% acetonitrile (solvent B)/85% water (solvent A). Solvent B increased to 35% over ten minutes, followed by a linear gradient of 65% solvent B to 100% solvent D over 10 minutes. Solvent D was maintained at 100% for 2 minutes and then the column was returned to 15% solvent B for 5 min. The flow rate was maintained at 1.5 mL/min. and monitored with a photodiode array (PDA) detector at 436 and 262 nm.
# Evaluation of recombinant AtNCED3 kinetic parameters for Km was accomplished using Michaelis-Menten equation plotted with EnzFitter™ v2.0.18.0 (Biosoft). The Ki for inhibitors was determined using a Dixon plot and concentration ranges of 250, 200, 150, 100, 50 and 0 μM inhibitor in the presence of either 55, 30 or 10 μM 9-cis-neoxanthin 2.^5
# [1] = test system: Arabidopsis thaliana Col-0 seeds; experiment: Seed germination assay; format: in vivo
# Experimental: Arabidopsis thaliana Col-0 seeds were sterilized by washing them with 10% sodium hypochlorite and 20% sodium dodecyl sulfate (Sigma) for five minutes and then rinsing four times with sterile water. Seeds were moist chilled for 4 days and then plated on germination medium (0.41% MS salts, 1% sucrose, 0.05% MES and 0.1% Gamborg's vitamins, pH 5.7, 0.7% agar) (Sigma) containing either 0.1, 0.33, 1.0 or 3.33 μM of inhibitor or (+)-ABA 1. As a control, seeds were sewn and germinated on media only without inhibitors or (+)-ABA 1. Germination was recorded over seven days and indexes calculated as described previously.^40
# AtNCED3 = experiment: qRT-PCR transcript level in mannitol stressed plants: AtNCED3; format: in vivo, Arabidopsis thaliana; settings: 10 and 33 μM, mannitol stress
# Experimental: For each condition to be tested, three hundred wild-type Arabidopsis thaliana Col-0 seeds (LEHLE) were sterilized, vernalized and sewn onto 200 mL of Sunshine Mix #3 (Sun Gro) potting material in an 8×8×4 cm pot. Plants were watered continuously with 25 g/100 mL of 20-20-20 (PlantProdTM) fertilizer and grown at 22° C. with a 16 hour photoperiod for 22 days. Plants were pre-treated with 50 mL/pot of Buffer A (10 mM HEPES pH 6.5) (Sigma)+/-10 or 33 μM test compound for 2 hours. Plants were then soaked with 50 mL/pot of Buffer A containing 0.4 M mannitol (Sigma)+/-10 or 33 μM test compound. Non-treated/non-stressed control plants were simply soaked in Buffer A at the designated time points. Aerial plant tissue was harvested after 6, 12 and 48 hours from the time of initial inhibitor treatment and flash frozen in liquid nitrogen. Half of the tissue samples were lyophilized for metabolite profiling and the other half taken for quantitative reverse-transcription polymerase chain reaction (qRT-PCR) analysis. […] The resulting mRNA was quantified and checked for quality using a Nano-DropTM ND-1000 Spectrophotometer. QuantiTectTM Reverse Transcription Kit (Qiagen) was used to produce cDNA as directed by the manufacturer from 20 ng of starting mRNA. Quantitative PCR was performed on 1 μL of cDNA product using a Bio-Rad iCyclerTM and the QuantiTectTM SYBR Green PCR Kit (Qiagen) coupled with QuantiTectTM Primer Assays (Qiagen) for the gene targets; […]-112304), Rd29B (NM-124609), CYP707A1 (NM-118043), CYP707A3 (NM-123902) and UBQ10 (NM-178968). The pre-validated primer sets are as follows indicated by the GeneGlobe (www1.qiagen.com/GeneGlobe/default.aspx) product name and (catalogue number): At_NCED3-1_SG (QT00769573), At_RD29B-1_SG (QT00840399), At_CYP707A1-1_SG (QT00808339), At_CYP707A3-1_SG (QT00739242), At_UBQ10_va.1_SG (QT01123745). Relative changes in transcript level were normalized using UBQ10 and quantified as previously described.^41
# [2] = highest concentration tested (3.33 μM)
structure (smiles),measurement,setting,value
"C/C(C#C[C@@]12O[C@]1(C)C[C@@H](O)CC2(C)C)=C/CNc1ccccc1 [Compound 18, (1R,3S,6R)-(3′Z)-1,5,5-Trimethyl-6-(3′-methyl-5′-(phenylamino)-pent-3′-en-1-ynyl)-7-oxabicyclo[4.1.0]heptan-3-ol]",pKi,recombinant AtNCED3,4.06
same,relative inhibition of AtNCED3 activity (in words),recombinant AtNCED3,completely inhibited
same,reduction of seed germination,[1]; 1 μM in germination medium,50%
same,reduction of seed germination,[1]; [2],71%
same,relative expression level of AtNCED3 in mannitol stressed plants (in words),AtNCED3,"similar, although not as pronounced effects"
"C/C(C#C[C@@]12O[C@]1(C)C[C@@H](O)CC2(C)C)=C/CSc1ccccc1 [Compound 17, (1R,3S,6R)-(3′Z)-1,5,5-Trimethyl-6-(3′-methyl-5′-(phenylthio)-pent-3′-en-1′-ynyl)-7-oxa-bicyclo[4.1.0]heptan-3-ol]",pKi,recombinant AtNCED3,4.24
same,relative inhibition of AtNCED3 activity (in words),recombinant AtNCED3,completely inhibited
same,reduction of seed germination,[1]; 1 μM in germination medium,26%
same,reduction of seed germination,[1]; [2],51%
same,effect on seed germination at low concentrations (in words),[1],slight promotion effects
same,relative expression level of AtNCED3 in mannitol stressed plants (in words),AtNCED3,"similar, although not as pronounced effects"
"CCSCC=C(C)C#CC1(O)C(C)CC(=O)CC1(C)C (racemic) [Compound 13, (4S,5R/4R,5S)-(3′Z)-4-(5′-(Ethylthio)-3′-methylpent-3′-en-1′-ynyl)-4-hydroxy-3,3,5-trimethylcyclohexanone]",inhibition at 1000 µM,recombinant AtNCED3; 1 mM compound,75%
same,pKi,recombinant AtNCED3,4.03
same,reduction of seed germination,[1]; 1 μM in germination medium,26%
same,less effect on germination than (+)-ABA 1,[1]; compared with (+)-ABA 1,60-70%
same,reduction of seed germination,[1]; [2],38%
same,effect on seed germination at low concentrations (in words),[1],slight promotion effects
same,relative expression level of AtNCED3 in mannitol stressed plants (in words),AtNCED3,decrease the relative expression levels of AtNCED3
